Reference: patent US11472788B2, “Benzoimidazoles as selective inhibitors of indoleamine 2,3-dioxygenases” (BEIGENE, LTD., priority 2017, dated 2022)

Legend:
Recombinant IDO1 = Recombinant IDO1 (Homo sapiens (Human), UniProt P14902); assay: IDO1 enzymatic assay; assay type: biochemical; details: 50 nM IDO1, 1.3 mM D-tryptophan, pH 7.5, read-out: Enzyme assay IC50
Protocol: Recombinant IDO1 was overexpressed and purified from E. coli cells with an N-terminal His tag. IDO1 enzymatic assay was carried out using a methodology similar to described in the literature (J. Biol. Chem. (1980), 255, 1339-1345). The reaction mixture contains 50 nM IDO1, 1.3 mM D-tryptophan, 5 mM L-ascorbic acid, […] methylene Blue, 0.4 mg/mL catalase and compound (or DMSO) in a buffer containing 50 mM potassium phosphate pH 7.5 and 0.1% BSA. After incubation at 24° C. for 1.5 hours, absorbance of the reaction mixture was continuously read at 321 nm to monitor the formation of N′-formylkynurenine by a FULOstar OMEGA plate reader (BMG LABTECH) for 1 hour. The enzymatic activity was determined by measuring the slope of the linear absorbance increase as a function of time. The IC50s are calculated based on remaining enzyme activity in the presence of increasing concentrations of compounds.

[1] = molecular target: cellular IDO1 in HeLa cells (Homo sapiens (Human), UniProt P14902); assay: HeLa Cell-Based IDO1 Kyn (Kynurenine) Production Assay; details: IFN-γ induced IDO1, 48 hours incubation, Kyn absorbance at 480 nm
Chain of cellular IDO1 in HeLa cells (P14902 whole entry): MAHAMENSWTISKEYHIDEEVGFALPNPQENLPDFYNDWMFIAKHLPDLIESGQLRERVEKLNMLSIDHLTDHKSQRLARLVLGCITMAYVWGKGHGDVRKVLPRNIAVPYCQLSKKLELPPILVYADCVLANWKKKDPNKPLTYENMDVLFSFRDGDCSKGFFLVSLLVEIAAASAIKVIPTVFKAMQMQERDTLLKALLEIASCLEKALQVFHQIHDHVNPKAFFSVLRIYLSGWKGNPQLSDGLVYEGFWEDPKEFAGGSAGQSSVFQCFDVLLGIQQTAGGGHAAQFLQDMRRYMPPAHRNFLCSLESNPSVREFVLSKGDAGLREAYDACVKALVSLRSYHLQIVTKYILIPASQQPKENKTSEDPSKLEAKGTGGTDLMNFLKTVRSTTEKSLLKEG
Method in brief: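 Compounds added to HeLa cells together with IFN-γ (100 ng/mL final) and 0.4 mM L-Trp, 48 h at 37 °C. Kynurenine in TCA-deproteinized supernatant measured colorimetrically with 4-(dimethylamino)benzaldehyde at 480 nm; IC50 from four-parameter logistic fit.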

Chain of Recombinant IDO1 (P14902 whole entry, species assumed): as the sequence (P14902 whole entry) above

| SMILES | IC50 (Recombinant IDO1) [nM] | EC50 [1] [nM] |
| --- | --- | --- |
| Clc1ccc2[nH]c(C[C@H]3CC[C@@H](c4ccnc5ccccc54)CC3)nc2c1 [Example A10b, 4-((1s,4s)-4-((5-chloro-1H-benzo[d]imidazol-2-yl)methyl)cyclohexyl)quinoline] | > 10000 | 10 |
| Fc1ccc2nccc(C3CCC(Cc4nc5cc(Cl)c(Cl)cc5[nH]4)CC3)c2c1 (stereo not drawn) [Example A12, 4-(4-((5,6-dichloro-1H-benzo[d]imidazol-2-yl)methyl)cyclohexyl)-6-fluoroquinoline] | > 10000 | 11 |
| COC(=O)c1ccc2[nH]c(CC3CCC(c4ccnc5ccc(F)cc45)CC3)nc2c1 (stereo not drawn) [Example A13, methyl 2-((4-(6-fluoroquinolin-4-yl)cyclohexyl)methyl)-1H-benzo[d]imidazole-5-carboxylate] | > 10000 | 8.4 |
| O=C(O)c1ccc2[nH]c(CC3CCC(c4ccnc5ccc(F)cc45)CC3)nc2c1 (stereo not drawn) [Example A14, 2-((4-(6-fluoroquinolin-4-yl)cyclohexyl)methyl)-1H-benzo[d]imidazole-5-carboxylic acid] | > 10000 | > 10000 |
| Clc1ccc2[nH]c(CC3CCC(c4ccc5ccccc5n4)CC3)nc2c1 (stereo not drawn) [Example A18, 2-(4-((5-chloro-1H-benzo[d]imidazol-2-yl)methyl)cyclohexyl)quinoline] | 5300 | 50 |
| Clc1ccc2[nH]c(CC3CCC(c4cnc5ccccc5c4)CC3)nc2c1 (stereo not drawn) [Example A19, 3-(4-((5-chloro-1H-benzo[d]imidazol-2-yl)methyl)cyclohexyl)quinoline] | > 10000 | 8.2 |
| c1ccc2nc(C3CCC(Cc4nc5ccccc5[nH]4)CC3)ccc2c1 (stereo not drawn) [Example A20, 2-(4-((1H-benzo[d]imidazol-2-yl)methyl)cyclohexyl)quinoline] | > 10000 | 89 |
| COc1ccc2[nH]c(CC3CCC(c4ccc5ccccc5n4)CC3)nc2c1 (stereo not drawn) [Example A21, 2-(4-((5-methoxy-1H-benzo[d]imidazol-2-yl)methyl)cyclohexyl)quinoline] | > 10000 | 131 |
| Clc1ccc2[nH]c(CC3CCC(c4cccc5ncccc45)CC3)nc2c1 (stereo not drawn) [Example A22, 5-(4-((5-chloro-1H-benzo[d]imidazol-2-yl)methyl)cyclohexyl)quinoline] | > 10 | 148 |
| Clc1ccc2[nH]c(C[C@H]3CC[C@H](c4ccc5ncccc5c4)CC3)nc2c1 [Example A23a, 6-((1r,4r)-4-((5-chloro-1H-benzo[d]imidazol-2-yl)methyl)cyclohexyl)quinoline] | > 10000 | 56 |
| Clc1ccc2[nH]c(C[C@H]3CC[C@@H](c4ccc5ncccc5c4)CC3)nc2c1 [Example A23b, 6-((1s,4s)-4-((5-chloro-1H-benzo[d]imidazol-2-yl)methyl)cyclohexyl)quinoline] | 3250 | 24 |
| Fc1ccc([C@H]2CC[C@H](Cc3nc4cc(Cl)ccc4[nH]3)CC2)cc1 [Example A30a, 5-chloro-2-(((1r,4r)-4-(4-fluorophenyl)cyclohexyl)methyl)-1H-benzo[d]imidazole] | > 10000 | 44 |
| Fc1ccc([C@H]2CC[C@@H](Cc3nc4cc(Cl)ccc4[nH]3)CC2)cc1 [Example A30b, 5-chloro-2-(((1s,4s)-4-(4-fluorophenyl)cyclohexyl)methyl)-1H-benzo[d]imidazole] | > 10000 | 39 |
| c1ccc(C2CCC(Cc3nc4ccccc4[nH]3)CC2)cc1 (stereo not drawn) [Example A32, 2-((4-phenylcyclohexyl)methyl)-1H-benzo[d]imidazole] | 8100 | 143 |
| FC(F)(F)c1ccc2[nH]c(C[C@H]3CC[C@H](c4ccccc4)CC3)nc2c1 [Example A33a, 2-(((1r,4r)-4-phenylcyclohexyl)methyl)-5-(trifluoromethyl)-1H-benzo[d]imidazole] | > 10000 | > 10000 |
| FC(F)(F)c1ccc2[nH]c(C[C@H]3CC[C@@H](c4ccccc4)CC3)nc2c1 [Example A33b, 2-(((1s,4s)-4-phenylcyclohexyl)methyl)-5-(trifluoromethyl)-1H-benzo[d]imidazole] | 8200 | 8.2 |
| Clc1ccc2[nH]c(C[C@H]3CC[C@H](c4ccccc4)CC3)nc2c1 [Example A34a, 5-chloro-2-(((1r,4r)-4-phenylcyclohexyl)methyl)-1H-benzo[d]imidazole] | 8000 | 168 |
| Clc1ccc2[nH]c(C[C@H]3CC[C@@H](c4ccccc4)CC3)nc2c1 [Example A34b, 5-chloro-2-(((1s,4s)-4-phenylcyclohexyl)methyl)-1H-benzo[d]imidazole] | 4800 | 87 |
| Clc1cccc2[nH]c(C[C@H]3CC[C@@H](c4ccccc4)CC3)nc12 [Example A35, 4-chloro-2-(((1s,4s)-4-phenylcyclohexyl)methyl)-1H-benzo[d]imidazole] | > 10000 | 107 |
| Fc1cc2nc(C[C@H]3CC[C@H](c4ccccc4)CC3)[nH]c2cc1Br [Example A37a, 6-bromo-5-fluoro-2-(((1r,4r)-4-phenylcyclohexyl)methyl)-1H-benzo[d]imidazole] | > 10000 | 223 |
| Fc1cc2nc(C[C@H]3CC[C@@H](c4ccccc4)CC3)[nH]c2cc1Br [Example A37b, 6-bromo-5-fluoro-2-(((1s,4s)-4-phenylcyclohexyl)methyl)-1H-benzo[d]imidazole] | 6900 | 99 |
| Fc1ccc2nccc(C3CCN(CCc4nc5cc(Cl)ccc5[nH]4)CC3)c2c1 [Example A38, 4-(1-(2-(5-chloro-1H-benzo[d]imidazol-2-yl)ethyl)piperidin-4-yl)-6-fluoroquinoline] | > 10000 | 143 |
| Clc1ccc2[nH]c(CC3CCN(c4ccnc5ccccc45)CC3)nc2c1 [Example A40, 4-(4-((5-chloro-1H-benzo[d]imidazol-2-yl)methyl)piperidin-1-yl)quinoline] | > 10000 | 852 |
| Fc1ccc2nccc(N3CCC(Cc4nc5cc(Cl)ccc5[nH]4)CC3)c2c1 [Example A41, 4-(4-((5-chloro-1H-benzo[d]imidazol-2-yl)methyl)piperidin-1-yl)-6-fluoroquinoline] | > 10000 | 481 |
